Data from ChEMBL document CHEMBL1148463, “Gamma-amino-substituted analogues of 1-[(S)-2,4-diaminobutanoyl]piperidine as highly potent and selective dipeptidyl peptidase II inhibitors” (J Med Chem, 2004).

Tests used:
Dipeptidyl peptidase 2 = Dipeptidyl peptidase 2 (Homo sapiens, UniProt Q9UHL4); experiment: Inhibition of human Dipeptidylpeptidase II (DPP II)
Dipeptidyl peptidase 4 = Dipeptidyl peptidase 4 (Homo sapiens, UniProt P27487); experiment: Inhibition of human Dipeptidylpeptidase IV (DPP IV)
Sequence of Dipeptidyl peptidase 4 (P27487 whole entry): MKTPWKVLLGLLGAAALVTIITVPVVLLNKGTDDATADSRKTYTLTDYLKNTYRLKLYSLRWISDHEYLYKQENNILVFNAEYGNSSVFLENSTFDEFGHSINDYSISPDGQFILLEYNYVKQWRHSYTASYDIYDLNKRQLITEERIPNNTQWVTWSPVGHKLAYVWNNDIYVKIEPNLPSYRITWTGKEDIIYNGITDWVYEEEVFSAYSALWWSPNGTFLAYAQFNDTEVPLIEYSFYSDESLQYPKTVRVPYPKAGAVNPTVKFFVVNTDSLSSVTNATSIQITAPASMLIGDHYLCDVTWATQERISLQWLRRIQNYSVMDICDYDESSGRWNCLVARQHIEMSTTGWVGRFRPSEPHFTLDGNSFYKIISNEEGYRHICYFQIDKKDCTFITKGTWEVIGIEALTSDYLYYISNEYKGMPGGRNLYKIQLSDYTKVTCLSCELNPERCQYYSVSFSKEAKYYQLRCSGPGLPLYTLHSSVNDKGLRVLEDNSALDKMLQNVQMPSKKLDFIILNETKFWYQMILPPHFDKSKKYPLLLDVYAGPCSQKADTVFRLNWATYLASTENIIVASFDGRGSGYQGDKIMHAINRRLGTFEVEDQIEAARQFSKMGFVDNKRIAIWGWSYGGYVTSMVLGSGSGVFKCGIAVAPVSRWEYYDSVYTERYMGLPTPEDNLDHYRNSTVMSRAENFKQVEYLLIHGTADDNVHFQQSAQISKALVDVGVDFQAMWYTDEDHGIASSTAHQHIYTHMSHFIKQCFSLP

[1] = biological target: Dipeptidyl peptidase II and dipeptidyl peptidase IV (DPP2 and DPP4) (Homo sapiens) (UniProt P27487+Q9UHL4); experiment: Ratio of IC50 for DPP IV to that of IC50 for DPP II; assay type: protein assay
[2] = Inhibition of human Dipeptidylpeptidase II (DPP II)

| Compound | IC50 (Dipeptidyl peptidase 2) | IC50 (Dipeptidyl peptidase 4) | SI [1] | IC50 [2] |
| --- | --- | --- | --- | --- |
| N[C@@H](CCN(Cc1ccccc1)Cc1ccccc1)C(=O)N1CCCCC1 | 0.0006 µM | 266 µM | 440000 |  |
| NCC[C@H](N=C(N)N)C(=O)N1CCCCC1 | 0.0074 µM | > 1000 µM | > 140 |  |
| CC1CCCCN1C(=O)[C@@H](N)CCNCc1ccc(Cl)cc1 (stereo partly drawn) | 0.0023 µM | > 500 µM | > 220000 |  |
| N[C@@H](CCNCc1cccc2ccccc12)C(=O)N1CCCCC1 | 0.00131 µM | 301 µM | 230000 |  |
| N#CC1CCCCN1C(=O)[C@@H](N)CCNCc1ccccc1 (stereo partly drawn) | 0.004 µM | 68 µM | 17000 |  |
| N[C@@H](CCNCc1ccc(Cl)cc1)C(=O)N1CCCC(F)C1 (stereo partly drawn) | 0.00062 µM | 500 µM |  |  |
| N[C@@H](CCN(Cc1ccc(Cl)cc1)Cc1ccc(Cl)cc1)C(=O)N1CCCCC1 | 0.0042 µM | > 125 µM | > 30000 |  |
| CC1CCCN(C(=O)[C@@H](N)CCNCc2ccc(Cl)cc2)C1 (stereo partly drawn) | 0.00113 µM | > 500 µM | > 440000 |  |
| N#CC1CCCCN1C(=O)[C@@H](N)CCNCc1ccc(Cl)cc1 (stereo partly drawn) | 0.0065 µM | 13 µM | 2000 |  |
| N[C@@H](CCNCc1ccccc1OCc1ccccc1)C(=O)N1CCCCC1 | 0.00039 µM | > 500 µM | > 1.3e+06 |  |
| N[C@@H](CCNCc1ccc(Cl)cc1)C(=O)N1CCCC(O)C1 (stereo partly drawn) | 0.0547 µM | > 1000 µM | > 20000 |  |
| CN(CC[C@H](N)C(=O)N1CCCCC1)Cc1ccc(Cl)cc1 | 0.00022 µM | 196 µM | 890000 |  |
| N[C@@H](CCNCc1ccc2ccccc2c1)C(=O)N1CCCCC1 | 0.0011 µM | 179 µM | 160000 |  |
| CN[C@@H](CCNCc1ccc(Cl)cc1)C(=O)N1CCCCC1 | 0.187 µM | > 500 µM | > 2700 |  |
| N#C[C@@H]1CCCCN1C(=O)[C@@H](N)CCN | 0.038 µM | 151 µM | 4000 |  |
| N[C@@H](CCNCc1ccc(Cl)cc1)C(=O)N1CCC(O)CC1 | 0.113 µM | > 1000 µM | > 9000 |  |
| N[C@@H](CCNCc1ccc(Cl)cc1)C(=O)N1CCC(F)CC1 | 0.00039 µM | 70 µM | 180000 |  |
| N[C@@H](CCNCc1ccc(Cl)cc1)C(=O)N1CC=CCC1 | 0.0011 µM | 148 µM | 130000 |  |
| CC1CCN(C(=O)[C@@H](N)CCNCc2ccc(Cl)cc2)CC1 | 0.00055 µM | > 500 µM | > 910000 |  |
| NCC[C@H](NCc1ccccc1)C(=O)N1CCCCC1 | 0.0125 µM | > 1000 µM | > 80 |  |
| N[C@@H](CCNCc1ccc(OCc2ccccc2)cc1)C(=O)N1CCCCC1 | 0.00041 µM | 192 µM | 470000 |  |

Second part, the compound after the results:

| IC50 (Dipeptidyl peptidase 2) | IC50 (Dipeptidyl peptidase 4) | SI [1] | IC50 [2] | Compound |
| --- | --- | --- | --- | --- |
| 0.0008 µM | 278 µM | 350000 |  | N[C@@H](CCNCc1cccs1)C(=O)N1CCCCC1 |
| 0.0015 µM | 518 µM |  |  | CC(=O)NCC[C@H](N)C(=O)N1CCCCC1 |
| 0.0186 µM | > 1000 µM | > 50000 |  | N[C@@H](CCNC1CCCCC1)C(=O)N1CCCCC1 |
| 0.00191 µM | > 500 µM | > 260000 |  | N[C@@H](CCNCCCc1ccccc1)C(=O)N1CCCCC1 |
| 0.0046 µM | 205 µM |  |  | N#Cc1ccc(NCC[C@H](N)C(=O)N2CCCCC2)nc1 |
| 0.085 µM | 64 µM | 750 |  | N[C@@H](CCNC1CCNCC1)C(=O)N1CCCCC1 |
| 0.00203 µM | 247 µM | 120000 |  | N[C@@H](CCNCc1ccccc1)C(=O)N1CCCCC1 |
| 0.00075 µM | 125 µM | 170000 |  | N[C@@H](CCNCc1ccncc1)C(=O)N1CCCCC1 |
| 0.0027 µM | 132 µM | 50000 |  | N#Cc1cccc(CNCC[C@H](N)C(=O)N2CCCCC2)c1 |
|  | > 1000 µM | > 7600 | 0.13 µM | NCC[C@H](N)C(=O)N1CCCCC1 |
| 0.00048 µM | 165 µM | 340000 |  | N[C@@H](CCNCc1ccc(Cl)cc1)C(=O)N1CCCCC1 |
| 0.00023 µM | 345 µM | 1.5e+06 |  | N[C@@H](CCNCc1ccccc1Cl)C(=O)N1CCCCC1 |
| 0.0074 µM | 418 µM |  |  | N[C@@H](CCNC(=O)c1ccccc1)C(=O)N1CCCCC1 |
| 0.0018 µM | 545 µM |  |  | N=C(N)NCC[C@H](N)C(=O)N1CCCCC1 |
| 0.00066 µM | 417 µM | 630000 |  | COc1ccc(CNCC[C@H](N)C(=O)N2CCCCC2)cc1 |
| 0.185 µM | > 500 µM | > 270000 |  | COc1ccccc1CNCC[C@H](N)C(=O)N1CCCCC1 |
| 0.0235 µM | 56 µM |  |  | N[C@@H](CCNc1ncccc1[N+](=O)[O-])C(=O)N1CCCCC1 |
| 0.00177 µM | 250 µM | 140000 |  | COc1cccc(CNCC[C@H](N)C(=O)N2CCCCC2)c1 |
| 0.00134 µM | 186 µM | 140000 |  | N[C@@H](CCNCc1cccc(Cl)c1)C(=O)N1CCCCC1 |
| 0.0027 µM | > 500 µM | > 180000 |  | COc1ccc(CNCC[C@H](N)C(=O)N2CCCCC2)c(OC)c1 |
| 0.017 µM | > 1000 µM | > 59 |  | NCC[C@H](NC1CCNCC1)C(=O)N1CCCCC1 |
| 0.0015 µM | 250 µM |  |  | N[C@@H](CCNc1ccccc1)C(=O)N1CCCCC1 |
| 0.0009 µM | 188 µM | 210000 |  | N[C@@H](CCNCCc1ccccc1)C(=O)N1CCCCC1 |
| 0.0011 µM | 496 µM | 450000 |  | N[C@@H](CCNCC1CCCCC1)C(=O)N1CCCCC1 |
